According to patent publication US8158172B2, “Fermented food products containing probiotics strains, and method for preparing same” (Compagnie Gervais Danone, priority 2006, dated 2012):

Columns and labels:
Type in all cases: cell-based
bifidobacteria (I-2494) = test: Development of the population of bifidobacteria in the model preserved at 4° C., filtered or autoclaved stimulant (Example 4); conditions: 50 mg/l; for population of bifidobacteria D 10: 10 days after placing in pots; for population of bifidobacteria D 10 / population of bifidobacteria D 24 / population of bifidobacteria D 29 / population of bifidobacteria D 0: preserved at 4° C.; for population of bifidobacteria D 24: 24 days after placing in pots; for population of bifidobacteria D 29: 29 days after placing in pots; for population of bifidobacteria D 0: placing in pots (packaging); for effect of the supply on the population of bifidobacteria: filtered or autoclaved, relative to control
Procedure: The impact of sterilization by filtration or thermization of the cysteine and methionine is assessed (final concentration used: 50 mg/l). The solutions are either filtered at 0.2 μm or autoclaved for 5 minutes at 121° C. then frozen in the form of beads in liquid nitrogen. Constitution of the model: Milex skimmed milk powder supplied by Arla food: 120 g […] Heat treatment: pasteurization for 30 minutes at 95° C. in a bubbling water bath Cysteine: supplier Sigma. The solution is prepared at 500 g/l, filtered on a 0.2 μm Nalgène filter unit or sterilized at 121° C. for 5 minutes by an autoclave controlled by temperature probe ([…] France S.A., reference KL 60/101). This solution is injected sterilely into the pasteurized model for a final concentration of 50 mg/l. […] The solution is prepared at 300 g/l; the filtration or sterilization treatment is identical to that carried out for the cysteine solution. This solution is injected sterilely into the pasteurized model for a final concentration of 50 mg/l. The seeding doses are referred to in Table 3 below. The seeding is 5.10^6 CFU/ml of Streptococcus thermophilus and 5.10^6 CFU/ml of Lactobacillus bulgaricus. The monitoring of the population of bifidobacteria in the model preserved at 4° C. as a function of the various conditions above is represented in FIG. 3 as well as in Table 4 below: The reference time D0 corresponds to placing in pots (packaging).

[1] = test system: ferment comprising Streptococcus thermophilus (CNCM: I-1630), Lactobacillus delbrueckii ssp. bulgaricus (CNCM: I-1632, I-1519) and Bifidobacterium animalis ssp …; test: Monitoring of the acidification of the milk product model by the ferment of Example 1; conditions: vitamin C 0.5 g/l, cysteine 50 mg/l; for acidification curve compared with control / vitamin C curve: FIG. 1; for Ta = latency time / Tmax = time at Vmax / TpH 4.8 = time to arrive at pH 4.8 / TpH 5 = time to arrive at pH 5 / TpH 5.5 = time to arrive at pH 5.5 / Vmax = maximum rate / pH 0 = pH at start of fermentation / pHm = pH at the maximum acidification rate: milk model at 37° C.
Procedure: A ferment comprising Streptococcus thermophilus (CNCM: I-1630)+Lactobacillus delbreckii ssp. bulgaricus (CNCM: I-1632)+Lactobacillus delbrueckii ssp. bulgaricus (CNCM: I-1519)+Bifidobacterium animalis ssp lactis (CNCM: I-2494) is used.
The growth of bifidobacteria in milk is measured in the presence of a solution of vitamin C (0.5 g/l) completely reducing the oxygen in the medium, and a solution of cysteine (50 mg/l).
Constitution of the product model:
Milex skimmed milk powder supplied by Arla food: 120 g
Water: quantity sufficient for 1 kg
A heat treatment is carried out involving pasteurization for 30 minutes at 95° C. in a bubbling water bath.
The cysteine is supplied by Sigma. The solution is prepared at 500 g/l, filtered on a 0.2 μm Nalgène filter unit. This solution is used injected sterilely into the pasteurized model for a final concentration of 50 mg/l.
The vitamin C is supplied by Sigma. The solution is prepared at 100 g/l, filtered on a 0.2 μm Nalgène filter unit (cat. 156-4020, Nalge Europe Ltd, Belgium). This solution is used injected sterilely into the pasteurized model for a final concentration of 0.5 g/l.
The seeding is 5.10^6 CFU/ml of Streptococcus thermophilus and 5.10^6 CFU/ml of Lactobacillus bulgaricus.
The monitoring of the acidification of the model at 37° C. is represented in Table 2 below as well as in FIG. 1.

[2] = test system: Bifidobacterium animalis ssp lactis (CNCM: I-2494); test: Growth of bifidobacteria in milk, quantity at the end of the fermentation (Example 1); conditions: milk model at 37° C.; vitamin C 0.5 g/l, cysteine 50 mg/l
Procedure: A ferment comprising Streptococcus thermophilus (CNCM: I-1630)+Lactobacillus delbreckii ssp. bulgaricus (CNCM: I-1632)+Lactobacillus delbrueckii ssp. bulgaricus (CNCM: I-1519)+Bifidobacterium animalis ssp lactis (CNCM: I-2494) is used. The growth of bifidobacteria in milk is measured in the presence of a solution of vitamin C (0.5 g/l) completely reducing the oxygen in the medium, and a solution of cysteine (50 mg/l). A heat treatment is carried out involving pasteurization for 30 minutes at 95° C. in a bubbling water bath. The cysteine is supplied by Sigma. The solution is prepared at 500 g/l, filtered on a 0.2 μm Nalgène filter unit. This solution is used injected sterilely into the pasteurized model for a final concentration of 50 mg/l. The vitamin C is supplied by Sigma. The solution is prepared at 100 g/l, filtered on a 0.2 μm Nalgène filter unit (cat. 156-4020, Nalge Europe Ltd, Belgium). This solution is used injected sterilely into the pasteurized model for a final concentration of 0.5 g/l. The seeding is 5.10^6 CFU/ml of Streptococcus thermophilus and 5.10^6 CFU/ml of Lactobacillus bulgaricus.

bifidobacteria = test: Populations of bifidobacteria in products with increasing doses of cysteine (Example 7)
Procedure: Different products were prepared with increasing doses of cysteine (see the table below). The control was the standard dairy product containing the ferment.

Bifidobacterium = test: Population of bifidobacteria during preservation at 10° C., cysteine incorporated before pasteurization (Example 5)
Procedure: This concentration was assessed on direct incorporation in the model and pasteurized composition (95° C., 30 minutes). The monitoring of the population of bifidobacteria in the product model during preservation at 10° C. is represented in FIG. 4.

[3] = test system: ferment comprising Streptococcus thermophilus (CNCM: I-2272, I-2773, I-2130), Lactobacillus delbrueckii ssp. bulgaricus (CNCM: I-1519) and Bifidobacterium …; test: Acidification kinetics of milk with the ferment of Example 2 (Example 3); conditions: 15 mg/L cysteine versus control without cysteine
Text: A ferment comprising Streptococcus thermophilus (CNCM: I-2272)+Streptococcus thermophilus (CNCM: I-2773)+Streptococcus thermophilus (CNCM: I-2130)+Lactobacillus delbrueckii ssp. bulgaricus (CNCM: I-1519)-+Bifidobacterium animalis ssp lactis (CNCM: I-2494) is used. The ferment described in Example 2 is used.

[4] = test system: Bifidobacterium animalis ssp lactis (CNCM: I-2494); test: Population of bifidobacteria in milk models (stirred yogurts) during preservation at 10° C. (Example 2)
Procedure: A ferment comprising Streptococcus thermophilus (CNCM: I-2272)+Streptococcus thermophilus (CNCM: I-2773)+Streptococcus thermophilus (CNCM: I-2130)+Lactobacillus delbrueckii ssp. bulgaricus (CNCM: I-1519)-+Bifidobacterium animalis ssp lactis (CNCM: I-2494) is used. “Milk models” are constituted by standard stirred yogurts comprising the ferment described above. The use of 0.2 μm-filtered cysteine was assessed in the “milk models” in proportions comprised from 5 mg/l to 50 mg/l (preferably from 5 to 20 mg/l). For the bifidobacteria counting method, reference may be made to M. Grand et al., Quantitative analysis and molecular identification of bifidobacteria strains in probiotic milk products, Eur. Food Res. Technol. 217:90-92 (2003).

CSCCC(N)C(=O)O [Autoclaved methionine, L-methionine ((S)-2-amino-4-methylthio-butyric acid)]
population of bifidobacteria D 10 (bifidobacteria (I-2494)): 3.5 · 10^8 CFU/ml | population of bifidobacteria D 24 (bifidobacteria (I-2494)): 3.5 · 10^8 CFU/ml | population of bifidobacteria D 29 (bifidobacteria (I-2494)): 2.8 · 10^8 CFU/ml | population of bifidobacteria D 0 (bifidobacteria (I-2494)): 3.4.10^8 CFU/ml

CSCCC(N)C(=O)O [methionine, L-methionine ((S)-2-amino-4-methylthio-butyric acid)]
effect of the supply on the population of bifidobacteria (bifidobacteria (I-2494)): increased | population of bifidobacteria D 10 (bifidobacteria (I-2494); listed as Filtered methionine): 6.2 · 10^8 CFU/ml | population of bifidobacteria D 24 (bifidobacteria (I-2494); listed as Filtered methionine): 3.4 · 10^8 CFU/ml | population of bifidobacteria D 29 (bifidobacteria (I-2494); listed as Filtered methionine): 2.3 · 10^8 CFU/ml | population of bifidobacteria D 0 (bifidobacteria (I-2494); listed as Filtered methionine): 4.0.10^8 CFU/ml

O=C1O[C@H]([C@@H](O)CO)C(O)=C1O [Vitamin C, vitamin C, reference compound]
acidification curve compared with control / vitamin C curve [1]: virtually indistinguishable from the control acidification curve | Ta = latency time [1]: 86 min | Tmax = time at Vmax [1]: 184 min | TpH 4.8 = time to arrive at pH 4.8 [1]: 479 minutes | TpH 5 = time to arrive at pH 5 [1]: 391 minutes | TpH 5.5 = time to arrive at pH 5.5 [1]: 260 minutes | Vmax = maximum rate [1]: −0.0079 pH units/minute | pH 0 = pH at start of fermentation [1]: 6.5 | pHm = pH at the maximum acidification rate [1]: 5.96 | D 0 CFU/ml = quantity of bifidobacteria obtained at the end of the fermentation [2]: 1.02 · 10^8 CFU/ml

N[C@@H](CS)C(=O)O [cysteine, L-cysteine]
effect of the supply on the population of bifidobacteria (bifidobacteria (I-2494)): increased | population of bifidobacteria D 10 (bifidobacteria (I-2494); listed as Filtered cysteine): 4.3 · 10^8 CFU/ml | population of bifidobacteria D 24 (bifidobacteria (I-2494); listed as Filtered cysteine): 4.0 · 10^8 CFU/ml | population of bifidobacteria D 0 (bifidobacteria (I-2494); listed as Filtered cysteine): 5.1.10^8 CFU/ml | Populations (CFU/mL) T0 (bifidobacteria; Test 1, cysteine 0.008%): 4.40E+06 CFU/mL | Populations (CFU/mL) Tf 495 min (bifidobacteria; Test 1, cysteine 0.008%): 1.70E+08 CFU/mL | Populations (CFU/mL) T0 (bifidobacteria; Test 2, cysteine 0.005%): 4.70E+06 CFU/mL | Populations (CFU/mL) T pH 4.8 (bifidobacteria; Test 2, cysteine 0.005%): 1.90E+08 CFU/mL | Populations (CFU/mL) Tf 495 min (bifidobacteria; Test 2, cysteine 0.005%): 2.40E+08 CFU/mL | Populations (CFU/mL) T0 (bifidobacteria; Test 3, cysteine 0.002%): 3.30E+06 CFU/mL | Populations (CFU/mL) T pH 4.8 (bifidobacteria; Test 3, cysteine 0.002%): 2.50E+08 CFU/mL | Populations (CFU/mL) Tf 495 min (bifidobacteria; Test 3, cysteine 0.002%): 3.10E+08 CFU/mL | Populations (CFU/mL) T0 (bifidobacteria; Test 5, cysteine 0.001%): 3.10E+06 CFU/mL | Populations (CFU/mL) T pH 4.8 (bifidobacteria; Test 5, cysteine 0.001%): 1.50E+08 CFU/mL | Populations (CFU/mL) Tf 495 min (bifidobacteria; Test 5, cysteine 0.001%): 2.40E+08 CFU/mL | Populations (CFU/mL) T0 (bifidobacteria; Test 6, cysteine 0.0005%): 3.90E+06 CFU/mL | Populations (CFU/mL) T pH 4.8 (bifidobacteria; Test 6, cysteine 0.0005%): 1.10E+08 CFU/mL | Populations (CFU/mL) Tf 495 min (bifidobacteria; Test 6, cysteine 0.0005%): 1.20E+08 CFU/mL | population of Bifidobacterium after 44 days of preservation at 10° C. (Bifidobacterium; 12 mg/l cysteine incorporated before pasteurization (95° C., 30 minutes)): above 1.4.10^8 CFU/ml | population of Bifidobacterium at D1 (24 hours of storage) (Bifidobacterium; 12 mg/l cysteine incorporated before pasteurization (95° C., 30 minutes), 10° C.): 2.4.10^8 CFU/ml | population of Bifidobacterium on addition of 0.2 μm filtered cysteine to the model (Bifidobacterium; filtered cysteine, not heat treated (comparison)): 3.10^8 CFU/ml | effect on the overall acidification kinetics of milk [3]: absence of the effect | acidification curve compared with control / vitamin C curve [1]: differs from the acidification curve in the presence of vitamin C | Ta = latency time [1]: 90 min | Tmax = time at Vmax [1]: 208 min | TpH 4.8 = time to arrive at pH 4.8 [1]: 417 minutes | TpH 5 = time to arrive at pH 5 [1]: 354 minutes | TpH 5.5 = time to arrive at pH 5.5 [1]: 248 minutes | Vmax = maximum rate [1]: −0.01046 pH units/minute | pH 0 = pH at start of fermentation [1]: 6.6 | pHm = pH at the maximum acidification rate [1]: 5.82 | D 0 CFU/ml = quantity of bifidobacteria obtained at the end of the fermentation [2]: 2.79 · 10^8 CFU/ml | Bifidobacterium I-2494 population after 28 days of preservation at 10° C. ([4]; 0.0015% i.e. 15 mg/l of filtered cysteine): 2.8.10^8 CFU/ml | Bifidobacterium population ([4]; dose of 0.0015% cysteine): > 2.10^8 CFU/ml | population of bifidobacteria after preservation for up to 28 days at 10° C. ([4]; highest concentration of L cysteine (range 5 mg/l to 50 mg/l)): remains stable | population of bifidobacteria at D+24 h ([4]; highest concentration of L cysteine (range 5 mg/l to 50 mg/l), 0.2 μm-filtered): 3.10^8 CFU/ml | population of bifidobacteria at D+24 h ([4]; lowest concentration of L cysteine (range 5 mg/l to 50 mg/l)): 1.10^8 CFU/ml

N[C@@H](CS)C(=O)O [Autoclaved cysteine, L-cysteine]
population of bifidobacteria D 10 (bifidobacteria (I-2494)): 5.2.10^8 CFU/ml | population of bifidobacteria D 24 (bifidobacteria (I-2494)): 2.8.10^8 CFU/ml | population of bifidobacteria D 29 (bifidobacteria (I-2494)): 1.7.10^8 CFU/ml | population of bifidobacteria D 0 (bifidobacteria (I-2494)): 3.1 · 10^8 CFU/ml
